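Cells were grown in 96-well plates and exposed to each compound for 48 hours at five concentrations; endpoints were interpolated linearly between bracketing concentrations, or set to the highest concentration if not reached. GI50 is the concentration that inhibits growth by half.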 Calls of active or inactive are those of the source. No stated cut-off is given here; in the data, active = GI50 up to about 1.1 µM and inactive = higher.
Key:
Assay in all cases: growth of human tumour cells (NCI), 48 h
786-0 = tested on: 786-0
A498 = tested on: A498
ACHN = tested on: ACHN
CCRF-CEM = tested on: CCRF-CEM
DU-145 = tested on: DU-145
HL-60 = tested on: HL-60
IGROV-1 = tested on: IGROV-1
K562 = tested on: K562
MCF7 = tested on: MCF7
MDA-MB-435 = tested on: MDA-MB-435
NCI-H226 = tested on: NCI-H226
NCI/ADR-RES = tested on: NCI/ADR-RES
RXF 393 = tested on: RXF 393
SF-268 = tested on: SF-268
SF-539 = tested on: SF-539
SK-MEL-2 = tested on: SK-MEL-2
SN12C = tested on: SN12C
SR = tested on: SR
T47D = tested on: T47D
TK-10 = tested on: TK-10

Compound	GI50 (786-0)	GI50 (A498)	GI50 (ACHN)	GI50 (CCRF-CEM)	GI50 (DU-145)	GI50 (HL-60)	GI50 (IGROV-1)	GI50 (K562)	GI50 (MCF7)	GI50 (MDA-MB-435)	GI50 (NCI-H226)	GI50 (NCI/ADR-RES)	GI50 (RXF 393)	GI50 (SF-268)	GI50 (SF-539)	GI50 (SK-MEL-2)	GI50 (SN12C)	GI50 (SR)	GI50 (T47D)	GI50 (TK-10)
CC1=NC(C)(C)N(O)C1(C)C	> 100 µM (inactive)	> 100 µM (inactive)	> 100 µM (inactive)	> 100 µM (inactive)	> 100 µM (inactive)	> 100 µM (inactive)	> 100 µM (inactive)	> 100 µM (inactive)	> 100 µM (inactive)	> 100 µM (inactive)	> 100 µM (inactive)	> 100 µM (inactive)	> 100 µM (inactive)	> 100 µM (inactive)	> 100 µM (inactive)	> 100 µM (inactive)	> 100 µM (inactive)	> 100 µM (inactive)	> 100 µM (inactive)	> 100 µM (inactive)
CC(=O)OCC1OC(n2c3c(c(-c4ccc(Cl)cc4)c(C#N)c2=S)CCCC3)C(OC(C)=O)C(OC(C)=O)C1OC(C)=O (stereo not given)	80.7 µM (inactive)	35.2 µM (inactive)	43.8 µM (inactive)	40.7 µM (inactive)	42.6 µM (inactive)	64.9 µM (inactive)	45.9 µM (inactive)	44 µM (inactive)	> 100 µM (inactive)	67.3 µM (inactive)	36.6 µM (inactive)	46.5 µM (inactive)	23.5 µM (inactive)	96.6 µM (inactive)	74.5 µM (inactive)	30.6 µM (inactive)	88.5 µM (inactive)	> 100 µM (inactive)	36.7 µM (inactive)	44.9 µM (inactive)
CCOc1cc(C2SCC(=O)N2c2ccc3c(c2)Oc2c(Cl)c4c(c(Cl)c2=N3)Oc2cc(N3C(=O)CSC3c3ccc(O)c(OCC)c3)ccc2N=4)ccc1O (stereo not given)	30.1 µM (inactive)	58.5 µM (inactive)	26.6 µM (inactive)		29.9 µM (inactive)	1.68 µM (inactive)	41.9 µM (inactive)	27 µM (inactive)	33.3 µM (inactive)	35.1 µM (inactive)	25.9 µM (inactive)	39 µM (inactive)	21.3 µM (inactive)	21.4 µM (inactive)	14.9 µM (inactive)	27.5 µM (inactive)		2.08 µM (inactive)	11 µM (inactive)	41.7 µM (inactive)
Cc1ccc(C(=O)/C=C(\O)C(=O)NN=C(c2ccccc2)c2ccccc2)cc1	28.4 µM (inactive)	> 100 µM (inactive)	45 µM (inactive)	29.2 µM (inactive)	> 100 µM (inactive)	13.9 µM (inactive)	62.7 µM (inactive)	17.3 µM (inactive)	54.6 µM (inactive)	> 100 µM (inactive)	> 100 µM (inactive)	30.5 µM (inactive)	> 100 µM (inactive)	> 100 µM (inactive)	> 100 µM (inactive)	> 100 µM (inactive)		27.2 µM (inactive)	> 100 µM (inactive)	> 100 µM (inactive)
Cc1cc2nnn(C3CCCO3)c2cc1C (stereo not given)	> 100 µM (inactive)	> 100 µM (inactive)		> 100 µM (inactive)	> 100 µM (inactive)	> 100 µM (inactive)	> 100 µM (inactive)	> 100 µM (inactive)	> 100 µM (inactive)	> 100 µM (inactive)	> 100 µM (inactive)	> 100 µM (inactive)	> 100 µM (inactive)	> 100 µM (inactive)	> 100 µM (inactive)	> 100 µM (inactive)	> 100 µM (inactive)	> 100 µM (inactive)	> 100 µM (inactive)	> 100 µM (inactive)
O=c1cc(O)c2ccccc2o1 [4-HYDROXYCOUMARINS]	> 100 µM (inactive)	> 100 µM (inactive)	> 100 µM (inactive)	> 100 µM (inactive)	> 100 µM (inactive)	> 100 µM (inactive)	> 100 µM (inactive)	> 100 µM (inactive)	> 100 µM (inactive)	> 100 µM (inactive)	> 100 µM (inactive)	> 100 µM (inactive)	> 100 µM (inactive)	> 100 µM (inactive)	> 100 µM (inactive)		> 100 µM (inactive)	> 100 µM (inactive)	> 100 µM (inactive)	> 100 µM (inactive)
N#CNC(=N)Nc1ccc(Cl)cc1	> 100 µM (inactive)	> 100 µM (inactive)	> 100 µM (inactive)		> 100 µM (inactive)		> 100 µM (inactive)	> 100 µM (inactive)	> 100 µM (inactive)	> 100 µM (inactive)	85.1 µM (inactive)	> 100 µM (inactive)	> 100 µM (inactive)	> 100 µM (inactive)	> 100 µM (inactive)	> 100 µM (inactive)	> 100 µM (inactive)	> 100 µM (inactive)	> 100 µM (inactive)	> 100 µM (inactive)
Cc1c[nH]c(C(=O)O)c1-c1cccn1-c1ccc(Cl)cc1[N+](=O)[O-]	> 100 µM (inactive)	> 100 µM (inactive)	> 100 µM (inactive)	> 100 µM (inactive)	> 100 µM (inactive)		36.3 µM (inactive)	73.8 µM (inactive)	69.7 µM (inactive)	> 100 µM (inactive)	92.3 µM (inactive)	72.3 µM (inactive)	83 µM (inactive)	> 100 µM (inactive)	> 100 µM (inactive)	> 100 µM (inactive)	> 100 µM (inactive)	99.3 µM (inactive)	> 100 µM (inactive)	> 100 µM (inactive)
Cc1ccc(/C=N/Nc2ccccn2)s1	> 54.7 µM (inactive)	> 100 µM (inactive)	> 100 µM (inactive)	> 100 µM (inactive)	> 100 µM (inactive)	> 76.7 µM (inactive)	> 100 µM (inactive)		21.1 µM (inactive)	> 100 µM (inactive)	> 56.5 µM (inactive)	> 40.6 µM (inactive)	> 100 µM (inactive)	> 64.6 µM (inactive)	> 100 µM (inactive)	> 100 µM (inactive)	> 47.4 µM (inactive)	> 100 µM (inactive)	> 57 µM (inactive)	> 31.6 µM (inactive)
CC(=O)c1ccc2c(c1)CC1(C2)Cc2cc3c(cc2C1=O)CCC3 (stereo not given)	19.3 µM (inactive)	19.5 µM (inactive)	16.1 µM (inactive)	13.3 µM (inactive)	24.3 µM (inactive)	14.3 µM (inactive)	19.8 µM (inactive)	16.5 µM (inactive)	20.8 µM (inactive)	17 µM (inactive)		12.2 µM (inactive)	20.8 µM (inactive)	28.9 µM (inactive)	29.9 µM (inactive)	21.7 µM (inactive)	16.7 µM (inactive)	3.04 µM (inactive)	20.5 µM (inactive)	25.7 µM (inactive)
Cc1cc2ccccc2c[n+]1CC(O)C[n+]1cc2ccccc2cc1C	> 100 µM (inactive)	> 100 µM (inactive)	> 100 µM (inactive)		> 100 µM (inactive)		> 100 µM (inactive)	> 100 µM (inactive)	> 100 µM (inactive)	> 100 µM (inactive)	> 100 µM (inactive)	> 100 µM (inactive)	> 100 µM (inactive)	> 100 µM (inactive)	> 100 µM (inactive)	> 100 µM (inactive)	> 100 µM (inactive)	> 100 µM (inactive)	> 100 µM (inactive)	> 100 µM (inactive)
OCCNCCN1CCN(CCCN2c3ccccc3Sc3ccc(C(F)(F)F)cc32)CC1	17.3 µM (inactive)	> 100 µM (inactive)	24.9 µM (inactive)	> 100 µM (inactive)	50.6 µM (inactive)	> 100 µM (inactive)	> 100 µM (inactive)		23.6 µM (inactive)	18.8 µM (inactive)	26.5 µM (inactive)	27.8 µM (inactive)	26.3 µM (inactive)	24.5 µM (inactive)	20.2 µM (inactive)	21.5 µM (inactive)	18.2 µM (inactive)	> 100 µM (inactive)	27.1 µM (inactive)	22.1 µM (inactive)
COc1ccc(/C=C2\Sc3nnc(-c4ccccc4)n3N=C2c2cc(F)c(Cl)cc2Cl)cc1OC	48.4 µM (inactive)	> 100 µM (inactive)	> 100 µM (inactive)	4.98 µM (inactive)	> 100 µM (inactive)	0.573 µM (active)	40.4 µM (inactive)	9.86 µM (inactive)	19.8 µM (inactive)	13.8 µM (inactive)	> 100 µM (inactive)	33.1 µM (inactive)	11.7 µM (inactive)	21 µM (inactive)	> 100 µM (inactive)	> 100 µM (inactive)		2.14 µM (inactive)	29.6 µM (inactive)	> 100 µM (inactive)
CCOC(=O)c1ccc(C(=O)OCC)n1-c1cc2cc(c1)CSCc1cc(cc(-n3c(C(=O)OCC)ccc3C(=O)OCC)c1)CSC2	> 10 µM (inactive)		> 10 µM (inactive)	> 10 µM (inactive)	> 10 µM (inactive)	> 10 µM (inactive)	> 10 µM (inactive)	> 10 µM (inactive)	> 10 µM (inactive)	> 10 µM (inactive)	> 10 µM (inactive)	> 10 µM (inactive)	> 10 µM (inactive)	> 10 µM (inactive)	> 10 µM (inactive)	> 10 µM (inactive)	> 10 µM (inactive)	> 10 µM (inactive)	> 10 µM (inactive)	> 10 µM (inactive)

From ChEMBL document CHEMBL1201862, “PubChem BioAssay data set” (2004)
